Measurements reported in patent publication US10173991B2, “Sulfone amide linked benzothiazole inhibitors of endothelial lipase” (BRISTOL-MYERS SQUIBB COMPANY, priority 2014, dated 2019).

The molecules below were run against Endothelial lipase (EL) (Homo sapiens (Human), UniProt Q9Y5X9) (assay: Endothelial lipase (EL) enzymatic assay with fluorescent substrate A10070 in DMPG vesicles). Conditions: not given.
Type: biochemical
Procedure, shortened: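 Substrate A10070 sits in sonicated DMPG vesicles at 0.11 mole fraction. Lipase and compound preincubated 30 min, 37° C, in HEPES pH 8.0 buffer with CaCl2.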

Chain of Endothelial lipase (EL) (Q9Y5X9 21-500): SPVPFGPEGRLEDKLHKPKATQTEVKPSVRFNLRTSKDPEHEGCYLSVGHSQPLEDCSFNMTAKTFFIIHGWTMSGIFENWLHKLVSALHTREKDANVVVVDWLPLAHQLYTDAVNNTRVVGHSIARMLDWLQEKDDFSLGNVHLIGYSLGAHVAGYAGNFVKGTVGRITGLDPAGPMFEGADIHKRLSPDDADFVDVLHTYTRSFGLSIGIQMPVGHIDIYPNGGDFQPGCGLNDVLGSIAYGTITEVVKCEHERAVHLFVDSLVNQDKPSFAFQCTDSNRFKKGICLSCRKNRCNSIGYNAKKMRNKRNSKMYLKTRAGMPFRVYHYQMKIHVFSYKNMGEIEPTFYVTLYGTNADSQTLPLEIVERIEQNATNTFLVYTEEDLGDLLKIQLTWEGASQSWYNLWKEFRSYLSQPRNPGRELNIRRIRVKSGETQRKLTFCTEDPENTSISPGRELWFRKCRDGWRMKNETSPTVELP

SMILES	IC50
COCCS(=O)(=O)C(C(=O)NCC(=O)NC1CC1)c1nc2ccc(-c3ccc(C(=O)N4C[C@@H](C)O[C@@H](C)C4)cc3)cc2s1 (stereo partly drawn) [Example 569, N-[(cyclopropyl-carbamoyl)methyl]-2-(6-{4-[(2R,6S)-2,6-dimethyl-morpholine-4-carbonyl]phenyl}-1,3-benzothiazol-2-yl)-2-(2-methoxyethane-sulfonyl)acetamide]	20 nM
COC(C)(C)CNC(=O)c1ccc(-c2ccc3nc(C(C(=O)NCC(=O)NC4CC4)S(C)(=O)=O)sc3c2)cc1 (centres unmarked) [Example 571, 4-[2-({[(cyclopropyl-carbamoyl)methyl]carbamoyl} (methanesulfonyl)methyl)-1,3-benzothiazol-6-yl]-N-(2-methoxy-2-methylpropyl) benzamide]	12 nM

Other lines, results leading:

IC50	SMILES
4 nM	C[C@@H]1CN(C(=O)c2ccc(-c3ccc4nc(C(C(=O)NCC(=O)NC5CC5)S(C)(=O)=O)sc4c3)cc2)C[C@H](C)O1 (stereo partly drawn) [Example 570, N-[(cyclopropyl-carbamoyl)methyl]-2-(6-{4-[(2R,6S)-2,6-dimethyl-morpholine-4-carbonyl]phenyl}-1,3-benzothiazol-2-yl)-2-methanesulfonyl-acetamide]
3 nM	COCCS(=O)(=O)C(C(=O)NCC(=O)NC1CC1)c1nc2cc(F)c(-c3ccc(C(=O)NCCc4ccccc4)cc3)cc2s1 (centres unmarked) [Example 573, 4-[2-({[(cyclopropyl-carbamoyl)methyl]carbamoyl}(2-methoxyethane-sulfonyl)methyl)-5-fluoro-1,3-benzothiazol-6-yl]-N-(2-phenylethyl) benzamide]
1 nM	CS(=O)(=O)C(C(=O)NCC(=O)NC1CC1)c1nc2cc(F)c(-c3ccc(NC(=O)CCc4ccccc4)cc3)cc2s1 (centres unmarked) [Example 576, N-{4-[2-({[(cyclopropyl-carbamoyl)methyl]carbamoyl} (methanesulfonyl)methyl)-5-fluoro-1,3-benzothiazol-6-yl]phenyl}-3-phenyl-propanamide]
1 nM	COCCS(=O)(=O)C(C(=O)NCC(=O)NC1CC1)c1nc2cc(F)c(-c3ccc(NC(=O)CCc4ccccc4)cc3)cc2s1 (centres unmarked) [Example 577, N-{4-[2-({[(cyclopropyl-carbamoyl)methyl]carbamoyl}(2-methoxyethane-sulfonyl)methyl)-5-fluoro-1,3-benzothiazol-6-yl]phenyl}-3-phenyl-propanamide]
4 nM	CC(C)S(=O)(=O)C(C(=O)NCC(=O)NC1CC1)c1nc2cc(F)c(-c3ccc(NC(=O)CCc4ccccc4)cc3)cc2s1 (centres unmarked) [Example 578, N-{4-[2-({[(cyclopropyl-carbamoyl)methyl]carbamoyl} (propane-2-sulfonyl)methyl)-5-fluoro-1,3-benzothiazol-6-yl]phenyl}-3-phenyl-propanamide]
12 nM	CS(=O)(=O)C(C(=O)NCC(=O)NC1CC1)c1nc2ccc(-c3ccc(-n4ccnc4)cc3)cc2s1 (centres unmarked) [Example 580, N-[(cyclopropyl-carbamoyl)methyl]-2-{6-[4-(1H-imidazol-1-yl)phenyl]-1,3-benzothiazol-2-yl}-2-methanesulfonyl-acetamide]

Same assay, conditions: EL from conditioned media of HT-1080 cells; 30 min preincubation at 37° C.

IC50	SMILES
2.8 nM	O=C(CNC(=O)C(c1nc2cc(F)c(-c3ccc(C(=O)NCCc4ccccc4)cc3)cc2s1)S(=O)(=O)CCC(F)(F)F)NC1CC1 (centres unmarked) [Example 572, 4-[2-({[(Cyclopropylcarbamoyl)methyl]carbamoyl}(3,3,3-trifluoropropanesulfonyl)methyl)-5-fluoro-1,3-benzothiazol-6-yl]-N-(2-phenylethyl)benzamide]
0.9 nM	O=C(CCc1ccccc1)Nc1ccc(-c2cc3sc(C(C(=O)NCC(=O)NC4CC4)S(=O)(=O)CCC(F)(F)F)nc3cc2F)cc1 (centres unmarked) [Example 575, N-{4-[2-({[(Cyclopropylcarbamoyl)methyl]carbamoyl}(3,3,3-trifluoropropanesulfonyl)methyl)-5-fluoro-1,3-benzothiazol-6-yl]phenyl}-3-phenylpropanamide]
6 nM	CS(=O)(=O)C(C(=O)NCC(=O)NC1CC1)c1nc2cc(F)c(-c3ccc(-n4ccnc4)cc3)cc2s1 (centres unmarked) [Example 579, N-[(Cyclopropylcarbamoyl)methyl]-2-{5-fluoro-6-[4-(1H-imidazol-1-yl)phenyl]-1,3-benzothiazol-2-yl}-2-methanesulfonylacetamide]
